Test results taken from patent US20230138327A1, “COMPOSITIONS AND METHODS CONTAINING REDUCED NICOTINAMIDE RIBOSIDE FOR PREVENTION AND TREATMENT OF PANCREATIC DISEASES AND CONDITIONS” (SOCIETE DES PRODUITS NESTLE S.A., priority 2020, published 2023).
Counter-ions that a name gives are not always drawn. Values belong to the compound of their own block, whether it stands above or below them.

Columns and labels:
AML12 cells = assay: Pathway of NRH-induced NAD+ synthesis: intracellular metabolites and pathway inhibitors; type: cell-based; conditions: for Effect of adenosine kinase inhibitor on NRH-mediated NAD+ synthesis: AML12 cells, 5-IT 10 mM for 1 hour prior to NRH, NAD measured 1 hour later
Method: FIG. 4. NRH leads to NAD+ biosynthesis through an adenosine kinase dependent path. AML12 cells were treated with an adenosine kinase inhibitor (5-IT; […]) for 1 hour prior to NRH treatment at the doses indicated. Then, 1 hour later, acidic extracts were obtained to measure NAD levels. All values in the figure are expressed as mean+/−SEM of 3 independent experiments. * indicates statistical difference at p<0.05 vs. the respective vehicle treated group.
(§1) Levels of NRH and other NAD-related metabolites in biological samples were obtained by using a cold liquid-liquid extraction using a mixture of methanol:water:chloroform in 5:3:5 (v/v), from which the polar phase was recovered for hydrophilic interaction ultra-high performance liquid chromatography mass spectrometry (UHPLC-MS) analysis. The UHPLC consisted of a binary pump, a cooled autosampler, and a column oven (DIONEX Ultimate 3000 UHPLC+ Focused, Thermo Scientific), connected to a triple quadrupole spectrometer (TSQ Vantage, Thermo Scientific) equipped with a heated electrospray ionisation (H-ESI) source. Of each sample, 2 μL were injected into the analytical column (2.1 mm×150 mm, 5 μm pore size, 200 Å HILICON iHILIC®-Fusion(P)), guarded by a pre-column (2.1 mm×20 mm, 200 Å HILICON iHILIC®-Fusion(P) Guard Kit) operating at 35° C. The mobile phase (10 mM ammonium acetate at pH 9, A, and acetonitrile, B) was pumped at 0.25 mL/min flow rate over a linear gradient of decreasing organic solvent (0.5-16 min, 90-25% B), followed by re-equilibration for a total run time of 30 min. The MS operated in positive mode at 3500 V with multiple reaction monitoring (MRM). The software Xcalibur v4.1.31.9 (Thermo Scientific) was used for instrument control, data acquisition and processing. Retention time and mass detection was confirmed by authentic standards.
A path in which NRH would be converted to NMNH, then to NADH and this would be finally oxidized to NAD+.
In order to understand the exact path by which NRH synthesizes NAD+, we initially evaluated whether NRH, could be transported into the cell by equilibrative nucleoside transporters (ENTs).
(§2) The action of NRH was also NAMPT-independent, based on experiments using FK866, a NAMPT inhibitor. If NRH led to NAD+ synthesis via the formation of NMNH, this hypothetical path would require the phosphorylation of NRH into NMNH. Given the essential and rate-limiting role of NRK1 in NR phosphorylation, we wondered whether the ability of NRH to boost NAD+ levels was NRK1 dependent. To answer this question, we evaluated NRH action in primary hepatocytes from either control or NRK1 knockout (NRK1KO) mice. […] Further, they rule out the possibility that NRH-induced NAD+ […] is driven by NRH oxidation into NR.
Considering the molecular structure of NRH, we reasoned that an alternative nucleoside kinase could be responsible for the phosphorylation of NRH. […] The role of AK in NRH-mediated NAD+ synthesis was confirmed using a second, structurally different, AK inhibitor, ABT-702. Metabolomic analyses further confirmed that upon inhibition of AK, the generation of NMNH, NADH and NAD+ was fully blunted, even if NRH was effectively entering the cell.
As a follow-up step, NMNAT enzymes could catalyze the transition from NMNH to NADH. […] Yet, part of the NRH action remained after gallotannin treatment when NRH was used at maximal doses.

[1] = tested on: primary hepatocytes from control or NRK1 knockout (NRK1KO) mice; assay: NAD+ levels in primary hepatocytes from control or NRK1 knockout mice; type: cell-based; conditions: 1 hour of treatment
Text: as §2

[2] = Stability of NRH or NR spiked in isolated mouse plasma; type: in vitro ADME; conditions: 2 h of incubation
Text: as §1

mice = assay: Tissue NAD+ levels in mice after intraperitoneal injection; type: in vivo; conditions: IP 500 mg/kg, after 1 h
Method: (§3) The above results prompted us to test whether NRH could act as an effective NAD+ precursor in vivo. For this, we first intraperitoneally (IP) injected mice with either NR or NRH (500 mg/kg). […] Importantly, NRH was detectable in circulation after IP injection.

[3] = Circulating NRH, NR and NAM in mice after intraperitoneal injection; type: in vivo; conditions: mice, IP 500 mg/kg
Text: as §1, §3

[4] = Plasma NRH, NR and NAM in mice after oral administration; type: in vivo; conditions: mouse, in vivo, po
Text: as §1
Oral administration of NRH led to very similar results to those observed after IP administration. […] NRH was detectable in plasma 1 h after oral administration. In contrast, NR levels were undetectable at 1 h after NR administration.

NAD+ levels in NRK1KO derived primary hepatocytes [1]: failed to increase NAD+ levels
Compound levels in isolated mouse plasma [2]: decayed
Generation of NAM in isolated mouse plasma [2]: increase in NAM
NAM levels in circulation [3]: highly increased
Circulating NAM after NR treatment relative to NRH treatment ([4]; C57BL/6NTac, 1 h): ~4 fold
Administered compound in plasma [4]: undetectable
Circulating NAM [4]: large increases
SMILES: NC(=O)c1ccc[n+]([C@@H]2O[C@H](CO)[C@H](O)C2O)c1 (stereo partly drawn) [NR, 1-b-D-ribofuranosyl-3-pyridinecarboxamide salt, reference compound]
Intracellular detection of NRH and NMNH (AML12 cells; 5 minutes after treatment): not
NAD+ levels in kidney (mice): increased NAD+ levels
NAD+ levels in liver (mice): increased NAD+ levels
NAD+ levels in muscle (mice): increased NAD+ levels

SMILES: Nc1ncnc2nc(-c3ccc(N4CCOCC4)nc3)cc(-c3cccc(Br)c3)c12 [ABT-702]
Effect of adenosine kinase inhibitor on NRH-mediated NAD+ synthesis (AML12 cells): confirmed

SMILES: O=C(OC[C@H]1O[C@@H](OC(=O)c2cc(O)c(O)c(OC(=O)c3cc(O)c(O)c(O)c3)c2)[C@H](OC(=O)c2cc(O)c(O)c(OC(=O)c3cc(O)c(O)c(O)c3)c2)[C@@H](OC(=O)c2cc(O)c(O)c(OC(=O)c3cc(O)c(O)c(O)c3)c2)[C@@H]1OC(=O)c1cc(O)c(O)c(OC(=O)c2cc(O)c(O)c(O)c2)c1)c1cc(O)c(O)c(OC(=O)c2cc(O)c(O)c(O)c2)c1 [gallotannin]
Effect of NMNAT inhibitor on NAD+ synthesis after NRH treatment (AML12 cells; NRH at maximal doses (0.5 mM), part of NRH action remained): largely compromised NAD+ synthesis
Effect of NMNAT inhibitor on NRH action (AML12 cells; NRH at submaximal doses): totally blocked

SMILES: Nc1ncnc2c1c(I)cn2[C@@H]1O[C@H](CO)[C@@H](O)[C@H]1O [5-IT, 5-iodotubercidin]
Effect of adenosine kinase inhibitor on NRH-mediated NAD+ synthesis (AML12 cells): fully ablated the action of NRH
Formation of NR and NMN after NRH treatment under AK inhibitor (AML12 cells; metabolomic analyses): prevented the formation of NR and NMN
